From BindingDB's records for patent WO2025049746 (Eikon Therapeutics, 2025)

What was measured:
[1] = biological target: Bifunctional 3'-5' exonuclease/ATP-dependent helicase WRN (Homo sapiens, UniProt Q14191); experiment: ADP-Glo Kinase Assay
Description: ATPase activity was measured using the ADP-Glo Kinase Assay following the manufacturers recommended protocol.

[2] = biological target: T1, Bifunctional 3'-5' exonuclease/ATP-dependent helicase WRN [480-1251] (UniProt Q14191); experiment: Biochemical Activity Assays
T1 construct: 480-1251
T1 sequence (Q14191 480-1251): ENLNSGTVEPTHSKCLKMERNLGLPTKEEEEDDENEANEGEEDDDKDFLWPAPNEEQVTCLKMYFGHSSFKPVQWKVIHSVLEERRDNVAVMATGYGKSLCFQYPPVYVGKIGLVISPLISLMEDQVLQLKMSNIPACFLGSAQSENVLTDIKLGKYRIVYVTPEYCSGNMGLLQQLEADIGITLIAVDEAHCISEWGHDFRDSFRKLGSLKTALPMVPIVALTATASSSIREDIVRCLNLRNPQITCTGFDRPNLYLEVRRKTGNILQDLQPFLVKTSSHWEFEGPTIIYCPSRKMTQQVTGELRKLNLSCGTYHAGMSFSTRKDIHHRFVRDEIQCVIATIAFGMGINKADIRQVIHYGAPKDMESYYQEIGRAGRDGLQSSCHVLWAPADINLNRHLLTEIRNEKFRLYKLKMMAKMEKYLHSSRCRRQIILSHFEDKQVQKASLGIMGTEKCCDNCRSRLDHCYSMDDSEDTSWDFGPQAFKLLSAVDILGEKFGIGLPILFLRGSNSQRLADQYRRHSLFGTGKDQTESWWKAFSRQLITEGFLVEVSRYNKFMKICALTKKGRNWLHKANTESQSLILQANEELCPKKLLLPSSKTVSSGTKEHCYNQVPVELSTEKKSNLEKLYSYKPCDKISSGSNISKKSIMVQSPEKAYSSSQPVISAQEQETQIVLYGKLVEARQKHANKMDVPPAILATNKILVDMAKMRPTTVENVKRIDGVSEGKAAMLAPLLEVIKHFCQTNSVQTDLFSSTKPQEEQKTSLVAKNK
Description: The pure fractions were pooled and desalted/buffer exchanged into storage buffer using a HiTrap desalting column. […] First, WRN alone was pre-incubated with DMSO or compound of interest for 15 minutes. To initiate the reaction, ATP, dsDNA substrate, and ssDNA competitor (ssDNA_comp: […]) were added and incubated at room temperature for 20 minutes at which point DNA unwinding activity was monitored by measuring Cy3 fluorescence. After obtaining the reading, the ATPase activity was measured using the ADP-Glo Kinase Assay following the manufacturers recommended protocol. […] Compounds were assayed in a 10-point dose response in duplicate at a 1% DMSO final assay concentration.

Chain of Bifunctional 3'-5' exonuclease/ATP-dependent helicase WRN (Q14191 whole entry): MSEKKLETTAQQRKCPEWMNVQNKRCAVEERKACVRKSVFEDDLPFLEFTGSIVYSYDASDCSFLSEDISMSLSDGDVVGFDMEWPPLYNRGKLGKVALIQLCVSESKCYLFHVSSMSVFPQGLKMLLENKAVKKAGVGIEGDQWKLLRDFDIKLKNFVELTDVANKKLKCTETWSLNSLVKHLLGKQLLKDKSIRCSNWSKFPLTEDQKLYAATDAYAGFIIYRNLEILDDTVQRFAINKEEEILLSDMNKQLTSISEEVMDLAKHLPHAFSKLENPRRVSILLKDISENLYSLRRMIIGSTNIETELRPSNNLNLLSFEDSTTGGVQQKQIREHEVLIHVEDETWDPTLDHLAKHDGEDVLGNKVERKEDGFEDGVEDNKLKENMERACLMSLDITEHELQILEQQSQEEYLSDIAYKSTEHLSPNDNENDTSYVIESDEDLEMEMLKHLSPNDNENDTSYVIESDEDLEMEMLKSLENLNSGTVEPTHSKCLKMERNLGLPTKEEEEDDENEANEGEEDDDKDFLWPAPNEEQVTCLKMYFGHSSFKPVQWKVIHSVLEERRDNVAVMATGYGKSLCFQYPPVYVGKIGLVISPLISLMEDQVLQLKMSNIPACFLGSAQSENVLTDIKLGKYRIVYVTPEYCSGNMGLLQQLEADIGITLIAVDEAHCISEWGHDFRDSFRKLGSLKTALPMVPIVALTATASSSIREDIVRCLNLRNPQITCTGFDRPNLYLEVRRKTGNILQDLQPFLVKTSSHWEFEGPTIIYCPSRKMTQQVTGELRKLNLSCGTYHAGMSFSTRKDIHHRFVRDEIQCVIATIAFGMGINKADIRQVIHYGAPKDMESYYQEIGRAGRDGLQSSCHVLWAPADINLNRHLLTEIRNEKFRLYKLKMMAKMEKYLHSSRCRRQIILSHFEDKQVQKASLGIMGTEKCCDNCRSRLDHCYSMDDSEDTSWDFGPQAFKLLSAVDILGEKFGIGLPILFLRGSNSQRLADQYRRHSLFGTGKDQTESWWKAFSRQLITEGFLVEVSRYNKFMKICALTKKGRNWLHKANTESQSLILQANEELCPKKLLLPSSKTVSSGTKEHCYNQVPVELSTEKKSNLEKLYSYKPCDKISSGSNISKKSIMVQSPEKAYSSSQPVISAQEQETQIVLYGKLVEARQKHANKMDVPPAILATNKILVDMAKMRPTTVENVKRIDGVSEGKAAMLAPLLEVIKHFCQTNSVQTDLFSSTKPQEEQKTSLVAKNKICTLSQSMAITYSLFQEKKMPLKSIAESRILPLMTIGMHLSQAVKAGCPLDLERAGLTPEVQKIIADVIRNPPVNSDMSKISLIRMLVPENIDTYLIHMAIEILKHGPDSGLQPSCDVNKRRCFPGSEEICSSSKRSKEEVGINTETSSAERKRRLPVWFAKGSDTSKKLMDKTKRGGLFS

Row | Structure (SMILES) | IC50 [1] [nM] | IC50 [2] [nM]
1 | CCc1c(N2CCN(C(=O)c3ncnc(C)c3O)CC2)c(=O)n2nc(C3=CCOCC3)nc2n1CC(=O)NC12COC(C(F)(F)F)(C1)C2 [WO2025049746, Example 70] | 852 | 748
2 | Cc1ncnc(C(=O)N2CCN(c3c(OC(F)F)n(CC(=O)Nc4ccc(C(F)(F)F)cc4Cl)c4nc(-c5ccc6c(c5)COC6)nn4c3=O)CC2)c1O [WO2025049746, Example 375] | 1140 | 4900
3 | CCc1c(N2CCN(C(=O)c3ncnc(C)c3O)CC2)c(=O)n2nc(-c3cc(OC)c(OC)c(OC)c3)nc2n1CC(=O)Nc1ccc(C(F)(F)F)cc1Cl [WO2025049746, Example 268] | 29700 | –
4 | CCc1c(N2CC3CCN(C(=O)c4ncnc(C)c4O)CC32)c(=O)n2nc(C3=CCOCC3)nc2n1CC(=O)Nc1ccc(C(F)(F)F)cc1Cl (stereo not drawn) [WO2025049746, Example 346] | 29700 | –
5 | CCc1c(N2CCN(C(=O)C3CCOCC3)CC2)c(=O)n2nc(-c3ccnc(O)n3)nc2n1CC(=O)Nc1ccc(C(F)(F)F)cc1Cl [WO2025049746, Example 431] | 29700 | –
6 | CCc1c(N2CCN(C(=O)c3ncnc(C)c3O)CC2)c(=O)n2nc(C3=CCOCC3)nc2n1CC(=O)NC12CCC(C(F)(F)F)(CC1)OC2 [WO2025049746, Example 358] | 29700 | –
7 | CCc1c(N2CCN(C(=O)c3ncnc(C)c3O)CC2)c(=O)n2nc(-c3cccc4c3CCOC4)nc2n1CC(=O)Nc1ccc(C(F)(F)F)cc1Cl [WO2025049746, Example 4] | – | 66.2
8 | CCc1c(N2CCN(C(=O)c3ncnc(C)c3O)CC2)c(=O)n2nc(-c3cncc4c3CCOC4)nc2n1CC(=O)Nc1ccc(C(F)(F)F)cc1Cl [WO2025049746, Example 163] | 29700 | –
9 | CCc1c(N2CCN(C(=O)c3ncnc(C)c3O)CC2)c(=O)n2nc(C3=CCOCC3)nc2n1CC(=O)NC12CC(C34CC(C(C)(F)F)(C3)C4)(C1)C2 [WO2025049746, Example 354] | 29700 | –
10 | CCc1c(N2CCN(C(=O)c3ncnc(C)c3O)CC2)c(=O)n2nc(-c3ccc4c(c3C)COC4)nc2n1CC(=O)Nc1ccc(C(F)(F)F)cc1Cl [WO2025049746, Example 196] | 9990 | –

The next lines start with the values.

Row | IC50 [1] [nM] | IC50 [2] [nM] | Structure (SMILES)
11 | 60 | 41 | CCc1c(N2CCN(C(=O)c3ncnc(C)c3O)CC2)c(=O)n2nc(-c3cnn4c3CCCC4)nc2n1CC(=O)Nc1ccc(C(F)(F)F)cc1Cl [WO2025049746, Example 167]
12 | 75 | 93 | CCc1c(N2CCN(C(=O)c3ncnc(C)c3O)CC2)c(=O)n2nc(-c3cc(OC(F)F)n4nccc4c3F)nc2n1CC(=O)Nc1ccc(C(F)(F)F)cc1Cl [WO2025049746, Example 317]
13 | 42 | 45 | CCc1c(N2CCN(C(=O)c3ncnc(C)c3O)CC2)c(=O)n2nc(-c3ccc4nc(NCC(F)F)oc4c3)nc2n1CC(=O)Nc1ccc(C(F)(F)F)cc1Cl [WO2025049746, Example 303]
14 | 24 | 23 | CCc1c(N2CCN(C(=O)c3ncnc(C)c3O)CC2)c(=O)n2nc(-c3ccc4ncncc4c3)nc2n1CC(=O)Nc1ccc(C(F)(F)F)cc1Cl [WO2025049746, Example 263]
15 | 49 | 42 | CCc1c(N2CCN(C(=O)c3nsc(-c4ccncc4)c3O)CC2)c(=O)n2nc(-c3ccc4c(c3)COC4)nc2n1CC(=O)Nc1ccc(C(F)(F)F)cc1Cl [WO2025049746, Example 448]
16 | 69 | 50 | CCc1c(N2CCN(C(=O)c3ncnc(C)c3O)CC2)c(=O)n2nc(-c3cc4n(n3)CCOC4)nc2n1CC(=O)Nc1ccc(C(F)(F)F)cc1Cl [WO2025049746, Example 154]
17 | 106 | 84 | CCc1c(N2CCN(C(=O)c3nc4c(cc3O)CCC4)CC2)c(=O)n2nc(-c3ccc4c(c3)COC4)nc2n1CC(=O)Nc1ccc(C(F)(F)F)cc1Cl [WO2025049746, Example 417]
18 | 58 | 42 | CCc1c(N2CCN(C(=O)c3ncnc(C)c3O)CC2)c(=O)n2nc(-c3cc(C)c4c(c3)CCO4)nc2n1CC(=O)Nc1ccc(C(F)(F)F)cc1Cl [WO2025049746, Example 171]
